Consider five substances from patent US9028845B2, “Chimeric immunomodulatory compounds and methods of using the same-IV” (Dynavax Technologies Corporation, priority 2001, dated 2015).

One experiment deals with CD19+ B cells. The experiment in a line: Human B cell proliferation assay (3H-thymidine incorporation). The settings on record: for cpm1 / cpm2 / cpm3 / mean cpm / mean of both: B cells, 2 μg/ml, Experiment B; for mean of both: mean of donors 121 and 194. (In general: Dividing cells build labelled thymidine or BrdU into new DNA.)
The test system of a further experiment is human PBMCs. The experiment in a line: Human PBMC cytokine response assay (IFN-γ and IFN-α in cell-free medium by ELISA), with or without cPLGA.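 On IFN-α (pg/ml) mean: 20 µg/mL compound for 24 hours.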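 On IFN-γ (pg/ml) mean: 20 µg/mL compound for 24 hours.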 The class given is cell-based. The settings on record: for IFN-γ (pg/ml) 28065: donor 28065 (high background), 1000 = outside assay limits; for IFN-γ (pg/ml) 28065 / IFN-α (pg/ml) 28065 / IFN-α (pg/ml) 28066 / IFN-γ (pg/ml) 28066 / IFN-α (pg/ml) 28067 / IFN-γ (pg/ml) 28067 / IFN-α (pg/ml) 28068 / IFN-γ (pg/ml) 28068 / IFN-α (pg/ml) mean / IFN-γ (pg/ml) mean: 20 ug/ml, + PLGA = premixed with 100 μg/ml cPLGA; for IFN-α (pg/ml) 28065: donor 28065; for IFN-α (pg/ml) 28066 / IFN-γ (pg/ml) 28066: donor 28066; for IFN-α (pg/ml) 28067 / IFN-γ (pg/ml) 28067: donor 28067; for IFN-α (pg/ml) 28068 / IFN-γ (pg/ml) 28068: donor 28068; for IFN-α (pg/ml) mean / IFN-γ (pg/ml) mean: mean of donors 28065-28068.

[1] abbreviates: Table 24, mean of donors 28234-28237.

In the experiment on CD19+ B cells (donor 121), “5′-TCGTCG-3′-abasic-5′-ACGTTCG-3′-abasic-5′-AGATGAT-3′ [Compound C-20]” registered a cpm1 of 31276 cpm, a cpm2 of 30851 cpm and a cpm3 of 28532 cpm. The substance further gave a mean cpm in the experiment with CD19+ B cells (donor 121 mean) of 30220 cpm. In the experiment with CD19+ B cells (donor 194), this substance displayed a cpm1 of 18082 cpm, a cpm2 of 18705 cpm and a cpm3 of 17481 cpm. The same substance registered a mean cpm in the experiment with CD19+ B cells (donor 194 mean) of 18089 cpm. In the experiment with CD19+ B cells, this substance registered a mean of both of 24155 cpm. Moreover, in the experiment with human PBMCs (24 h), the “IFN-γ (pg/ml) 28065” value amounted to 354 pg/mL, the “IFN-α (pg/ml) 28065” value stood at 21 pg/mL, the “IFN-α (pg/ml) 28066” value stood at 5 pg/mL and the “IFN-γ (pg/ml) 28066” value was 13 pg/mL. In addition, in the experiment on human PBMCs (24 h), the “IFN-α (pg/ml) 28067” value stood at 13 pg/mL, the “IFN-γ (pg/ml) 28067” value was 16 pg/mL, the “IFN-α (pg/ml) 28068” value came to 64 pg/mL and the “IFN-γ (pg/ml) 28068” value came to 505 pg/mL. Besides, in the experiment on human PBMCs (24 h), the “IFN-α (pg/ml) mean” value stood at 26 pg/mL and the “IFN-γ (pg/ml) mean” value came to 222 pg/mL.

In the experiment with CD19+ B cells (donor 121), “5′-ACGTTCG-3′-HEG-5′-ACGTTCG-3′-HEG-5′-AGATGAT-3′ [Compound C-24]” returned a cpm1 of 8206 cpm, a cpm2 of 6789 cpm and a cpm3 of 2799 cpm. The substance further came in with a mean cpm with CD19+ B cells (donor 121 mean) of 5931 cpm. In the experiment with CD19+ B cells (donor 194), this substance returned a cpm1 of 3979 cpm, a cpm2 of 3407 cpm and a cpm3 of 3468 cpm. For the same substance, in the experiment with CD19+ B cells (donor 194 mean), the mean cpm is 3618 cpm. In the experiment on CD19+ B cells, this substance showed a mean of both of 4775 cpm. Further, in the experiment with human PBMCs (Table 10, donor 28042), the IFN-α is 0 pg/mL and the IFN-γ was found to be 148 pg/mL. In the experiment on human PBMCs (Table 10, donor 28043), this substance showed an IFN-α of 0 pg/mL and an IFN-γ of 156 pg/mL. In addition, in the experiment with human PBMCs (Table 10, donor 28044), the IFN-α worked out at 8 pg/mL and the IFN-γ was determined as 312 pg/mL. In the experiment on human PBMCs (Table 10, donor 28045), this substance registered an IFN-α of 0 pg/mL and an IFN-γ of 26 pg/mL. In the experiment with human PBMCs (Table 10, mean of donors), this substance returned an IFN-α mean of 2 pg/mL and an IFN-γ mean of 161 pg/mL. Further, in the experiment with human PBMCs (24 h), the “IFN-γ (pg/ml) 28065” value turned out to be 337 pg/mL, the “IFN-α (pg/ml) 28065” value came out at 28 pg/mL, the “IFN-α (pg/ml) 28066” value came to 0 pg/mL and the “IFN-γ (pg/ml) 28066” value is 2 pg/mL. In the experiment with human PBMCs (24 h), the “IFN-α (pg/ml) 28067” value was 8 pg/mL, the “IFN-γ (pg/ml) 28067” value was found to be 4 pg/mL, the “IFN-α (pg/ml) 28068” value was 67 pg/mL and the “IFN-γ (pg/ml) 28068” value worked out at 116 pg/mL. Also, in the experiment with human PBMCs (24 h), the “IFN-α (pg/ml) mean” value worked out at 26 pg/mL and the “IFN-γ (pg/ml) mean” value was 115 pg/mL.

For the substance “(5′-TCGTCGA-3′-C3)2-glycerol-C3-5′-TCGTCGA-3′ [Compound C-104]”, the “B cell proliferation (FIG. 11), in words” value with CD19+ B cells (purified human B cells, 5 μg/ml, 96 h) is listed as “stimulates B cells to proliferate”. Moreover, the “IFN-α induction (FIG. 10), in words” value with human PBMCs (PBMCs from 8 donors, 20 μg/ml, 24 h) is on record as “induces no measurable IFN-α”. Further, the IFN-α in the experiment on human PBMCs (Table 24, donor 28234) is 16 pg/mL; with human PBMCs (Table 24, donor 28235) it was 29 pg/mL; in the experiment with human PBMCs (Table 24, donor 28236), 16 pg/mL; in the experiment with human PBMCs (Table 24, donor 28237), 16 pg/mL. The IFN-γ in the experiment on human PBMCs (Table 24, donor 28234) was found to be 14 pg/mL; in the experiment on human PBMCs (Table 24, donor 28235), 4 pg/mL; with human PBMCs (Table 24, donor 28236), 87 pg/mL; in the experiment on human PBMCs (Table 24, donor 28237) it was 125 pg/mL. In addition, the IFN-α mean in the experiment with human PBMCs (setting [1]) amounted to 19 pg/mL. The substance also showed an IFN-γ mean with human PBMCs (setting [1]) of 58 pg/mL. The “IFN-α induction, in words” value in the experiment on human PBMCs (used alone) is “HEG (C-94)>TEG (C-103)>C3 (C-104)=no linker (C-28)”.

As for “5′-TCGTCG-3′-C4-5′-ACGTTCG-3′-C4-5′-AGATGAT-3′ [Compound C-17]”, in the experiment on CD19+ B cells (donor 121), the cpm1 is on record as 27975 cpm, the cpm2 stood at 30426 cpm and the cpm3 amounted to 9895 cpm. This substance also registered a mean cpm with CD19+ B cells (donor 121 mean) of 22765 cpm. In the experiment on CD19+ B cells (donor 194), this substance showed a cpm1 of 17467 cpm, a cpm2 of 14890 cpm and a cpm3 of 10518 cpm. This substance also displayed a mean cpm with CD19+ B cells (donor 194 mean) of 14292 cpm. The substance further yielded a mean of both with CD19+ B cells of 18529 cpm. Further, in the experiment on human PBMCs (24 h), the “IFN-γ (pg/ml) 28065” value stood at 1000 pg/mL, the “IFN-α (pg/ml) 28065” value worked out at 21 pg/mL, the “IFN-α (pg/ml) 28066” value was 0 pg/mL and the “IFN-γ (pg/ml) 28066” value was determined as 6 pg/mL. In addition, in the experiment on human PBMCs (24 h), the “IFN-α (pg/ml) 28067” value worked out at 22 pg/mL, the “IFN-γ (pg/ml) 28067” value is 32 pg/mL, the “IFN-α (pg/ml) 28068” value is 95 pg/mL and the “IFN-γ (pg/ml) 28068” value was 459 pg/mL. For the same substance, in the experiment with human PBMCs (24 h), the “IFN-α (pg/ml) mean” value is 34 pg/mL and the “IFN-γ (pg/ml) mean” value is 374 pg/mL.

Turning to “5′-TCGTCG-3′-TEG-5′-ACGTTCG-3′-TEG-5′-AGATGAT-3′ [Compound C-18]”, in the experiment with CD19+ B cells (donor 121), the cpm2 stood at 17085 cpm and the cpm3 is listed as 14653 cpm. Moreover, the mean cpm with CD19+ B cells (donor 121 mean) is recorded as 15869 cpm. In the experiment with CD19+ B cells (donor 194), the cpm1 amounted to 10028 cpm, the cpm2 stood at 12217 cpm and the cpm3 is given as 10538 cpm. Moreover, in the experiment with CD19+ B cells (donor 194 mean), the mean cpm is given as 10928 cpm. In the experiment on CD19+ B cells, the mean of both turned out to be 13398 cpm. For the same substance, in the experiment with human PBMCs (24 h), the “IFN-γ (pg/ml) 28065” value amounted to 1000 pg/mL, the “IFN-α (pg/ml) 28065” value amounted to 51 pg/mL, the “IFN-α (pg/ml) 28066” value was determined as 9 pg/mL and the “IFN-γ (pg/ml) 28066” value came out at 102 pg/mL. For the same substance, in the experiment with human PBMCs (24 h), the “IFN-α (pg/ml) 28067” value amounted to 16 pg/mL, the “IFN-γ (pg/ml) 28067” value came out at 27 pg/mL, the “IFN-α (pg/ml) 28068” value is 162 pg/mL and the “IFN-γ (pg/ml) 28068” value was determined as 695 pg/mL. Also, in the experiment on human PBMCs (24 h), the “IFN-α (pg/ml) mean” value came out at 59 pg/mL and the “IFN-γ (pg/ml) mean” value amounted to 456 pg/mL.
